The values that follow come from patent US20240116910A1, “Heterocycles as WIP1 Inhibitors” (PMV Pharmaceuticals, Inc., priority 2022, published 2024).

The term IC50 denotes the concentration at which inhibition is half-maximal.

The target in test [1] is recombinant His-tag Wip1 full length protein (amino acids #1-605) (Homo sapiens (Human), UniProt O15297). The experiment in a line: Wip1 full length phosphatase enzyme FDP assay. Type of test: biochemical. As to conditions: fluorescein diphosphate (FDP) substrate, RT 2 hours, fluorescence Ex485/Em535. Here is the method: The Human Wip1 (2-420, aa 2-420) or Wip1 full length (aa 1-605) DNA sequence was codon optimized and synthesized by Genscript for insect cell expression. The open reading frame of Wip1(2-420) with a N-terminal-His6 affinity tag followed by a TEV cleavage site was subcloned sites into the pFastBac1 expression vector. The recombinant bacmid DNA was transfected in Sf9 insect cells for baculovirus production. After 72 hours infection, the Sf9 cells were harvested by centrifugation and resuspended in lysis buffer containing 50 mM Tris/HCl, pH 8.0, 500 mM NaCl, 20% glycerol, Benzonase 0.5% CHAPS and Roche cOmplete™ EDTA free protease inhibitors. Cells were disrupted with microfluidizer and the debris was removed by centrifugation at 185,000 g for 1 hour. The supernatant was subjected to HisTrap FF for affinity purification. Proteins were eluted with a linear gradient of 0-500 mM imidazole in HisTrap buffer containing 50 mM Tris/HCl, pH 8.0, 500 mM NaCl and 20% glycerol, 0.05% CHAPS. The eluted protein was dialyzed against dialysis buffer (20 mM MES, 100 mM NaCl, 20% glycerol, 0.5 mM TCEP, 0.05% CHAPS) followed purification via HiTrap SP HP column. The protein was eluted with a gradient of 100 mM-2 M NaCl in dialysis buffer. His6-[…] was finally concentrated and loaded onto a size-exclusion column (NiLoad 16/600 Superdex 200 pg, GE Healthcare) pre-equilibrated with 50 mM MOPS (pH 7.5), 200 mM NaCl, 20% glycerol, 1 mM TCEP, 0.05% CHAPS and 0.1 mM EGTA. The peak fractions containing purified Nis6-Wip1(2-420) were pooled and concentrated to 1.0 mg/mL and flash frozen at −80° C.
Wip1 Length and Wip1(2-420) Phosphatase Enzyme FDP Assays.
Test compounds (252 mM stock in DMSO) were diluted 3 folds in series in DMSO and 1.2 μl per well were added into 384-well polypropylene black plates (Nunc). Twelve μl per well of Assay Buffer (100 mM NaCl, 50 mM MOPS, pH 7.5, 0.8 mM CHAPS, 0.1 mM EGTA, 30 mM MgCl2, 0.3 mM TCEP, 0.2 mg/mL BSA) was added followed by […] per well of 50.4 nM recombinant His-tag Wip1 full length protein (amino acids #1-605) or recombinant His-tag Wip1(2-420) protein (amino acids #2-420) in Assay Buffer and the plate was incubated at RT (22° C.) for 5 min. Ten mM of fluorescein diphosphate (FDP) in DMSO was diluted to […] in Assay Buffer and […] per well was added to the plate and incubated at RT (22° C.) for 2 hours. […] per well of 64.1 mM EDTA in water were added to stop the enzyme reaction. The plate was centrifuged at 1,200 rpm (Eppendorf 5810R Plate centrifuge) for 1 minute and fluorescence intensity (Ex485/Em535) was measured on Perkin Elmer Victor Reader. EC50 values were calculated using either Prism (GraphPad) or ActivityBase software (IDBS), The IC50 results are provided in Table M.

For test [2], the target named is recombinant His-tag Wip1(2-420) protein (amino acids #2-420) (Homo sapiens (Human), UniProt O15297). Briefly: Wip1(2-420) phosphatase enzyme FDP assay. In kind it is biochemical. The settings on record: fluorescein diphosphate (FDP) substrate, RT 2 hours, fluorescence Ex485/Em535; read-out: WIP1 (Truncated 2-420) FDP Assay: IC50.

Each structure is given as a SMILES string.

Sequence of recombinant His-tag Wip1(2-420) protein (amino acids #2-420) (O15297 2-420): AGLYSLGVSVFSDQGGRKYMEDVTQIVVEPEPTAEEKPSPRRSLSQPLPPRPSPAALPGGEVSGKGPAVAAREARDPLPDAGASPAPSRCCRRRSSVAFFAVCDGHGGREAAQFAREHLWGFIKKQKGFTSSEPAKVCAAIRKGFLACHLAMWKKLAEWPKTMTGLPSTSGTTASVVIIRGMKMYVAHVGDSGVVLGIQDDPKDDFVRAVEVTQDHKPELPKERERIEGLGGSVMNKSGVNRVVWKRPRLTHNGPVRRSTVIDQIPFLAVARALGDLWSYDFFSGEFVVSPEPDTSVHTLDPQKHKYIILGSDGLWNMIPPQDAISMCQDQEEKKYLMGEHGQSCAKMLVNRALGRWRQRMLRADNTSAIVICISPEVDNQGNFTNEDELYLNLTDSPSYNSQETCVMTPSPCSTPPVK
Sequence of recombinant His-tag Wip1 full length protein (amino acids #1-605) (O15297 whole entry, the tested form may be a part): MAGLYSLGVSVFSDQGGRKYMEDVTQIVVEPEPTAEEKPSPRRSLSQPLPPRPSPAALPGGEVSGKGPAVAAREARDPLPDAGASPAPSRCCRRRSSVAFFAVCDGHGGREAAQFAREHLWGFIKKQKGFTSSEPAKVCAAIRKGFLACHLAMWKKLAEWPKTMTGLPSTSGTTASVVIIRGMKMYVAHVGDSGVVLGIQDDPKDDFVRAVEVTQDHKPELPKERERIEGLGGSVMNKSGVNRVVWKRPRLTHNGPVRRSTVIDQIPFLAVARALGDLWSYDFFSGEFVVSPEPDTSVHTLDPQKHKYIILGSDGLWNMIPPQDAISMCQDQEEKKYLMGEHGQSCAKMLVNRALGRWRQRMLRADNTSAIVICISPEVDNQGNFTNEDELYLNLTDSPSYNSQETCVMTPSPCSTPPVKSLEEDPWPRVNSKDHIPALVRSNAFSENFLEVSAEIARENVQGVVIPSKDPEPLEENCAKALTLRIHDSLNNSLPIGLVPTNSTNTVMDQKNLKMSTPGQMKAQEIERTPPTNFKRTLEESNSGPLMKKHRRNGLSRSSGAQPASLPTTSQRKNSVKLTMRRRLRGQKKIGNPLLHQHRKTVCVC

As for `Cc1ncc(Cl)cc1NC(C)c1ccc(C(=O)N[C@@H](CC2CCCC2)C(=O)NC2CC2(F)F)s1` (stereo partly drawn) [Compound 13, (2S)-2-[(5-{1-[(5-chloro-2-methylpyridin-3-yl)amino]ethyl}thiophen-2-yl)formamido]-3-cyclopentyl-N-(2,2-difluorocyclopropyl)propanamide], the IC50 in test [1] worked out at 11 nM; in test [2], 10 nM.

In the case of `Cc1ncc(Cl)cc1N[C@@H](C)c1ccc(C(=O)N[C@@H](CC2CCCC2)C(=O)NC23CC(C#N)(C2)C3)s1` [Compound 31, (2S)-2-({5-[(1S)-1-[(5-chloro-2-methylpyridin-3-yl)amino]ethyl]thiophen-2-yl}formamido)-N-{3-cyanobicyclo[1.1.1]pentan-1-yl}-3-cyclopentylpropanamide], the IC50 was found to be 16 nM in test [1] and 10 nM in test [2].

For `Cc1cc(NC(=O)[C@H](CC2CCCC2)NC(=O)c2cnc([C@@H](C)Nc3cccc(Cl)c3)s2)cc(C)n1` [Compound 118, (2S)-2-({2-[(1R)-1-[(3-chlorophenyl)amino]ethyl]-1,3-thiazol-5-yl}formamido)-3-cyclopentyl-N-(2,6-dimethylpyridin-4-yl)propanamide], the IC50 in test [1] was determined as 196 nM; in test [2], 135 nM.

Turning to `Cc1ncc(Cl)cc1N[C@@H](C)c1ccc(C(=O)N[C@@H](CC2CCCC2)C(=O)NC(C)(C)C#N)s1` [Compound 65, (2S)-2-({5-[(1S)-1-[(5-chloro-2-methylpyridin-3-yl)amino]ethyl]thiophen-2-yl}formamido)-N-(1-cyano-1-methylethyl)-3-cyclopentylpropanamide], the values for the IC50 in test [1] and in test [2] were 10 nM and 8 nM, respectively.

Turning to `Cc1ncc(Cl)cc1NCc1ncc(C(=O)N[C@@H](CC2CCCCC2)C(=O)Nc2ccncc2)s1` [Compound 300, 2-[[(5-chloro-2-methyl-3-pyridyl)amino]methyl]-N-[(1S)-1-(cyclohexylmethyl)-2-oxo-2-(4-pyridylamino)ethyl]thiazole-5-carboxamide], the IC50 in test [1] worked out at 15 nM; in test [2], 6 nM.

With `Cc1cc(NC(=O)[C@@H](NC(=O)c2ccc([C@H](C)Nc3cc(Cl)cnc3C)s2)C2CCCCC2)ccn1` [Compound 175, (2S)-2-({5-[(1S)-1-[(5-chloro-2-methylpyridin-3-yl)amino]ethyl]thiophen-2-yl}formamido)-2-cyclohexyl-N-(2-methylpyridin-4-yl)acetamide], the IC50 was 15 nM in test [1] and 13 nM in test [2].

Regarding `CC[C@@H](Nc1cc(Cl)cnc1C)c1ccc(C(=O)N[C@@H](CC2CCCC2)C(=O)N[C@@H]2CC2(F)F)s1` [Compound 50, (2S)-2-({5-[(1R)-1-[(5-chloro-2-methylpyridin-3-yl)amino]propyl]thiophen-2-yl}formamido)-3-cyclopentyl-N-[(1R)-2,2-difluorocyclopropyl]propanamide], the IC50 in test [1] stood at 170 nM; in test [2], 122 nM.

Regarding `Cc1ncc(Cl)cc1NC(C)c1ncc(C(=O)N[C@@H](CC2CCCC2)C(=O)NC2CC2)s1` (stereo partly drawn) [Compound 280, (2S)-2-[(2-{1-[(5-chloro-2-methylpyridin-3-yl)amino]ethyl}-1,3-thiazol-5-yl)formamido]-3-cyclopentyl-N-cyclopropylpropanamide], the IC50 in test [1] amounted to 70 nM; in test [2], 41 nM.

Regarding `C[C@H](Nc1ccc(F)c(Cl)c1)c1ccc(C(=O)N[C@@H](CC2CCCC2)C(=O)NC2CC2)s1` [Compound 6, 5-[(1S)-1-(3-chloro-4-fluoro-anilino)ethyl]-N-[(1S)-1-(cyclopentylmethyl)-2-(cyclopropylamino)-2-oxo-ethyl]thiophene-2-carboxamide], the results for the IC50 in test [1] and in test [2] were 9 nM and 6 nM, respectively.

Regarding `COc1cc(NC(=O)[C@H](CC2CCCC2)NC(=O)c2ccc([C@H](C)Nc3cc(Cl)cnc3C)s2)ccc1F` [Compound 69, (2S)-2-({5-[(1S)-1-[(5-chloro-2-methylpyridin-3-yl)amino]ethyl]thiophen-2-yl}formamido)-3-cyclopentyl-N-(4-fluoro-3-methoxyphenyl)propanamide], the IC50 came out at 7 nM in test [1] and 4 nM in test [2].

In the case of `Cc1ncc(Cl)cc1NC(C)c1ccc(C(=O)N[C@@H](CC2CCCC2)C(=O)NC23CC(C2)C3)s1` (stereo partly drawn) [Compound 10, N-[(1S)-2-(1-bicyclo [1.1.1]pentanylamino)-1-(cyclopentylmethyl)-2-oxo-ethyl]-5-[1-[(5-chloro-2-methyl-3-pyridyl)amino]ethyl]thiophene-2-carboxamide], the results for the IC50 in test [1] and in test [2] were 18 nM and 10 nM, respectively.

`CCc1ncc(Cl)cc1N[C@H](C)c1ccc(C(=O)N[C@@H](CC2CCCC2)C(=O)NC2CC2)s1` [Compound 79, (2S)-2-({5-[(1R)-1-[(5-chloro-2-ethylpyridin-3-yl)amino]ethyl]thiophen-2-yl}formamido)-3-cyclopentyl-N-cyclopropylpropanamide]: the IC50 in test [1] came out at 308 nM; in test [2] it was 223 nM.

As for `CC[C@H](Nc1cc(Cl)cnc1C)c1ccc(C(=O)N[C@@H](CC2CCCC2)C(=O)N[C@H]2CC2(F)F)s1` [Compound 48, (2S)-2-({5-[(1S)-1-[(5-chloro-2-methylpyridin-3-yl)amino]propyl]thiophen-2-yl}formamido)-3-cyclopentyl-N-[(1S)-2,2-difluorocyclopropyl]propanamide], the IC50 stood at 8 nM in test [1] and 5 nM in test [2].

Regarding `C[C@H](c1ccc(C(=O)N[C@@H](CC2CCCC2)C(=O)NC2CC2)s1)N1CCc2cc(F)c(Cl)cc21` [Compound 57, (2S)-2-({5-[(1R)-1-(6-chloro-5-fluoro-2,3-dihydro-1H-indol-1-yl)ethyl]thiophen-2-yl}formamido)-3-cyclopentyl-N-cyclopropylpropanamide], the IC50 in test [1] stood at 16 nM; in test [2], 12 nM.

In the case of `O=C(N[C@@H](CC1CCCCC1)C(=O)NC1CC1)c1cnc(CN2CCc3ccc(C(F)(F)F)cc32)s1` [Compound 306, N-[(1S)-1-(cyclohexylmethyl)-2-(cyclopropylamino)-2-oxo-ethyl]-2-[[6-(trifluoromethyl)indolin-1-yl]methyl]thiazole-5-carboxamide], the results for the IC50 in test [1] and in test [2] were 38 nM and 83 nM, respectively.

Consider `C[C@@H](Nc1cccc(Cl)c1)c1ncc(C(=O)N[C@@H](CC2CCCC2)C(=O)NC2CC2)s1` [Compound 125, (2S)-2-({2-[(1R)-1-[(3-chlorophenyl)amino]ethyl]-1,3-thiazol-5-yl}formamido)-3-cyclopentyl-N-cyclopropylpropanamide], for which the IC50 amounted to 16 nM in test [1] and 59 nM in test [2].

With `Cc1ncc(Cl)cc1N[C@@H](C)c1ccc(C(=O)N[C@@H](CC23CC(C2)C3)C(=O)NC2CC2)s1` [Compound 72, (2S)-3-{bicyclo[1.1.1]pentan-1-yl}-2-({5-[(1S)-1-[(5-chloro-2-methylpyridin-3-yl)amino]ethyl]thiophen-2-yl}formamido)-N-cyclopropylpropanamide], the IC50 in test [1] turned out to be 136 nM; in test [2], 103 nM.

`C[C@@H](Nc1ccc(F)c(Cl)c1)c1ccc(C(=O)N[C@@H](CC2CCCC2)C(=O)NC2CC2)s1` [Compound 7, 5-[(1R)-1-(3-chloro-4-fluoro-anilino)ethyl]-N-[(1S)-1-(cyclopentylmethyl)-2-(cyclopropylamino)-2-oxo-ethyl]thiophene-2-carboxamide]: the IC50 was 68 nM in test [1] and 80 nM in test [2].

For the molecule `Cc1cc(NC(=O)[C@H](CC2CCCC2)NC(=O)c2cnc(C(C)Nc3cccc(Cl)c3)s2)cc(C)n1` (stereo partly drawn) [Compound 122, (2S)-2-[(2-{1-[(3-chlorophenyl)amino]ethyl}-1,3-thiazol-5-yl)formamido]-3-cyclopentyl-N-(2,6-dimethylpyridin-4-yl)propanamide], the IC50 in test [1] was 62 nM; in test [2] it was 130 nM.
